The record followed here is patent publication US20230115335A1, “PYRAZOLE DERIVATIVES WITH ANTICANCER ACTIVITY” (BOARD OF REGENTS, THE UNIVERSITY OF TEXAS SYSTEM, priority 2021, published 2023).

Series [1] concerns CEM cell line. Kind of series: DNS cytotoxicity assay, CEM. Type of series: cell-based, human. The settings on record: read-out: CEM CC50. From the text: […] […] After treatment, images were acquired and analyzed to determine percentages of live/dead cells and their cytotoxicity. […] The Hs-27 non-cancerous human foreskin fibroblast cell line was used for comparison purposes.

Series [2] can be described thus: DNS cytotoxicity assay, HS-27 non-cancerous fibroblast. The format is cell-based. As to conditions: human, Hs-27 non-cancerous foreskin fibroblast cells; 72 hr incubations; non-cancerous; read-out: Cell Line CC50 HS-27*. On the procedure: (§1) Since the non-adherent (free floating) lymphoma/leukemia cell lines divide faster than the adherent cell lines, they were incubated for a shorter period (48 h) of time with the compound.
(§2) Lymphoma/leukemia cell lines, which grow in suspension, were incubated for 48 h with the compounds. […] After treatment, images were acquired and analyzed to determine percentages of live/dead cells and their cytotoxicity. […] The Hs-27 non-cancerous human foreskin fibroblast cell line was used for comparison purposes.

For series [3], the system named is MDA-MB231. Description: DNS cytotoxicity assay, MDA-MB-231. Type of series: cell-based. The settings on record: Homo sapiens, 72 hr incubations, read-out: Cell Line CC50 MDA-MD-231*. On the procedure: as §1, §2
The nature of series [4]: DNS cytotoxicity assay, MCF10A. As to conditions: human, MCF10A non-cancerous cells, 72 hr incubations, read-out: Cell Line CC50 MCF10A*. The format is cell-based. As to the method:
as §1

The subject of series [5] is Jurkat. Description: DNS cytotoxicity assay, Jurkat. The format is cell-based, human. The settings on record: Homo sapiens, Jurkat; Lymphoma-Leukemia; 48 hrs. An excerpt: Using the high throughput Differential Nuclear Staining (DNS) screening assay (Lema et al., Current Cellular Biochemistry 1, 1-14, 2011) 15 pyrazole compounds were synthesized and screened on the human T-cell Acute Lymphoblastic Leukemia CEM cell line (Tables 1 and 2). […] The compounds were synthesized based on a pyrazole backbone structure previously determined to have potent cytotoxic activity (FIG. 5). Several commercial and non-commercial analogues (see Table 3) have been tested and determined that the ones with highest activity have a similar structure circled in FIG. 5. […] SSK-3 has been tested on a few cancer cell lines (see Table 4) and also found to induce programmed cell death via a variety of biochemical assays. […] Since the non-adherent (free floating) lymphoma/leukemia cell lines divide faster than the adherent cell lines, they were incubated for a shorter period (48 h) of time with the compound.
SSK-3 has potent cytotoxic activity against a panel of human cancer cell lines. The cytotoxic activity of SSK-3 was examined by the DNS assay (Lema et al., Current Cellular Biochemistry 1, 1-14, 2011). Lymphoma/leukemia cell lines, which grow in suspension, were incubated for 48 h with the compounds. Since the adherent cells generally divide at a slower rate than the non-adherent cell lines, the MDA-MB231, HCC1419, T47D, COLO205, PANC-1, A-549 adherent cancer cells lines were incubated for 72 h in the presence of the compounds. After treatment, images were acquired and analyzed to determine percentages of live/dead cells and their cytotoxicity. […] The Hs-27 non-cancerous human foreskin fibroblast cell line was used for comparison purposes.

For series [6], the system named is CEM cells. Kind of series: Phosphatidylserine externalization, Annexin V-FITC/PI assay. The settings on record: positive control for death. The format is cell-based, human. As to the method: FIG. 1. […] CEM cells were treated at the CC50 and twice (2×) that concentration of SSK-3. Note that PS externalization is an early marker of apoptosis. * Indicates P value less than 0.001.
SSK-3 induces significant phosphatidylserine externalization. To corrobotate whether SSK-3 utilizes apoptosis to induce cell death, we measured phosphatidylserine (PS) externalization in SSK-3-treated CEM cells by using the Annexin V-FITC/PI assay (3, 4).

Where [7] appears, read: Homo sapiens, CCRF-CEM, Initial Screen, DNS assay.

Like-named read-outs stand apart in the source and are kept apart here.

In the case of `O=C1Nc2ccc(F)cc2/C1=N/NC(=O)c1n[nH]c2c1CCC2` [SSK-2], the CC50 in series [1] (setting [7]) is greater than 10 µM.
`O=C(N/N=C/c1cc(Br)cc(Br)c1O)c1n[nH]c2c1CCC2` [P3C.6]: the results for the cytotoxic concentration (CC50) at 72 h in series [2] and in series [4] were 9.94 µM and 5.85 µM, respectively. Besides, the CC50 in series [3] was determined as 2.53 µM.
`O=C(N/N=C1\C(=O)N(CN2CCOCC2)c2ccccc21)c1n[nH]c2c1CCC2` [SSK-5]: the 50% cytotoxic concentration (CC50) in series [1] (Homo sapiens, CCRF-CEM) is greater than 10 µM.
For `O=C(N/N=C/c1ccc(Br)cc1)c1n[nH]c2c1CCC2` [P3C.1], the CC50 at 72 h in series [2] amounted to 0.78 µM; in series [4], 0.42 µM. In addition, the CC50 in series [3] was 0.097 µM; in series [5], 0.39 µM.
With `O=C(N/N=C/c1ccc(OCc2cn(Cc3ccc([N+](=O)[O-])cc3)nn2)cc1)c1n[nH]c2c1CCC2` [SSK-15], in series [1] (setting [7]), the CC50 was greater than 10 µM.
`Cc1ccc2c(c1)/C(=N/NC(=O)c1n[nH]c3c1CCC3)C(=O)N2` [SSK-4]: the 50% cytotoxic concentration (CC50) in series [1] (Initial Screen, DNS assay) came to 5.02 ± 0.78 µM.
Consider `COc1ccc(-c2nn(-c3ccccc3)cc2/C=N/NC(=O)c2n[nH]c3c2CCC3)cc1` [SSK-11], for which, in series [1] (setting [7]), the cytotoxic concentration (CC50) was 3.14 ± 0.33 µM.
For the compound `O=C(N/N=C/c1cccc2ccccc12)c1n[nH]c2c1CCC2` [P3C.2], the CC50 at 72 h came to 4.1 µM in series [2] and 0.53 µM in series [4]. The 50% cytotoxic concentration (CC50) in series [3] came out at 1.83 µM.
With `O=C(N/N=C1\C(=O)N(CN2CCCCC2)c2ccccc21)c1n[nH]c2c1CCC2` [SSK-6], the CC50 in series [1] (Homo sapiens, CCRF-CEM) is greater than 10 µM.
`O=C(N/N=C/c1c(O)ccc2ccccc12)c1n[nH]c2c1CCCC2` [P3C.3]: the CC50 at 72 h in series [2] is greater than 10 µM; in series [4], 2.16 µM. Moreover, the CC50 in series [3] worked out at 1.61 µM.
For `O=C1Nc2ccccc2/C1=N/NC(=O)c1n[nH]c2c1CCC2` [SSK-1], in series [1] (setting [7]), the CC50 was 12.1 ± 1.11 µM.
Regarding `CCN(CC)c1ccc(/C=N/NC(=O)c2n[nH]c3c2CCC3)cc1` [P3C.4], the CC50 at 72 h was greater than 10 µM in series [2] and 2.46 µM in series [4]. For the same compound, in series [3], the CC50 was 2.91 µM.
Consider `O=C(N/N=C/c1cn(-c2ccccc2)nc1-c1ccc(Cl)cc1)c1n[nH]c2c1CCC2` [SSK-10], for which, in series [1] (setting [7]), the CC50 is 7.83 ± 0.13 µM.
Turning to `OO` [H2O2, reference compound], the “percentage of PS externalization” value in series [6] was roughly 78%.
For the compound `Cc1ccc(-c2nn(-c3ccccc3)cc2/C=N/NC(=O)c2n[nH]c3c2CCC3)cc1` [SSK-8], in series [1] (setting [7]), the CC50 came out at 3.6 ± 0.16 µM.
As for `O=C(N/N=C/c1cn(-c2ccccc2)nc1-c1ccccc1)c1n[nH]c2c1CCC2` [SSK-7], the CC50 in series [1] (setting [7]) stood at 8.15 ± 0.23 µM.
Take `O=C(N/N=C/c1cn(-c2ccccc2)nc1-c1cc2ccccc2oc1=O)c1n[nH]c2c1CCC2` [SSK-12]: the CC50 in series [1] (setting [7]) amounted to 8.25 ± 0.26 µM.
With `Cc1ccc(Cn2cc(COc3ccc(/C=N/NC(=O)c4n[nH]c5c4CCC5)cc3)nn2)cc1` [SSK-13], the CC50 in series [1] (setting [7]) was greater than 10 µM.
`COc1ccc(/C=N/NC(=O)c2n[nH]c3c2CCC3)cc1O` [P3C.10]: the cytotoxic concentration (CC50) at 72 h in series [2] is greater than 10 µM; in series [4] it was 2.46 µM. For the same compound, the cytotoxic concentration (CC50) in series [3] is 2.91 µM.
The like results for `O=C(N/N=C/c1ccccc1Br)c1n[nH]c2c1CCC2` [P3C.5] were, in that order, greater than 10 µM, 6.36 µM and 9.88 µM.
Regarding `O=C(N/N=C/c1ccc(OCc2cn(Cc3ccccc3)nn2)cc1)c1n[nH]c2c1CCC2` [SSK-14], the CC50 in series [1] (setting [7]) is greater than 10 µM.
